From patent publication US12121518B2, “PARP-1 and methods of use thereof” (The Board of Supervisors of Louisiana State University and …, priority 2017, dated 2024)

Assays:
ARG-1, iNOS, COX2 = assay: Immunoblot of ARG-1, iNOS, COX2 and related factors in bone marrow-derived MDSCs; assay type: cell-based, mouse; conditions: day 2 to day 4 of differentiation
Excerpt: (I) Positive control for PARP-1 trapping.
Cell fractionation, protein extraction and immunoblot analysis—Tumor tissues or cells were harvested and homogenized in RIPA lysis buffer (Santa Cruz Biotechnology) containing a cocktail of protease and phosphatase inhibitors on ice. Nuclear fractions were isolated as described (35) and the remaining chromatin pellets were washed then suspended in an isotonic buffer followed by sonication. […] Protein expression signals developed by ECL (Pierce, ThermoFisher Scientific) were determined by a G:Box Gel Image Analysis System (Syngene, Cambridge, UK) equipped with the GeneSys image capture software.

[1] = test system: bone marrow-derived MDSCs; assay: Bone marrow-derived MDSC differentiation in vitro: viability and CD11b/Gr1 phenotype by FACS; conditions: 1 μM
[2] = 20-30 μM; cited from earlier work
[3] = test system: steroid-resistant leukemia cells; assay: Steroid-resistant leukemia cells: cell killing and NOTCH levels; assay type: cell-based; conditions: GSI alone: 1 nM PF-3084014 or 25 nM BMS-906024
[4] = in vivo; cited from earlier work
[5] = test system: trinitrobenzene sulfonic acid-induced colitis; conditions: in vivo; cited from earlier work

CNCc1ccc(-c2[nH]c3cc(F)cc4c3c2CCNC4=O)cc1 [rucaparib]
expression of Arg1 in BM-MDSCs (ARG-1, iNOS, COX2; 4 nM): blocked expression of Arg1
MDSC population (CD11b+/Gr1+) at day 4 [1]: appears to increase MDSC population

O=c1[nH]c2sccc2c2ccccc12 [TIQ-A]
cytotoxicity [2]: cytotoxic

CN1C(=O)[C@@H](NC(=O)[C@H](CCC(F)(F)F)[C@H](CCC(F)(F)F)C(N)=O)N=C(c2ccccc2)c2ccccc21 [BMS-906024]
NOTCH1 levels or cell proliferation of leukemia cells [3]: do not have major effects

CCC[C@H](N[C@H]1CCc2cc(F)cc(F)c2C1)C(=O)Nc1cn(C(C)(C)CNCC(C)(C)C)cn1 [PF-3084014]
NOTCH1 levels or cell proliferation of leukemia cells [3]: do not have major effects

NC(=O)c1cccc2cn(-c3ccc([C@@H]4CCCNC4)cc3)nc12 [niraparib]
expression of Arg1 in BM-MDSCs (ARG-1, iNOS, COX2; 4 nM): blocked expression of Arg1

Cn1ncnc1[C@H]1c2n[nH]c(=O)c3cc(F)cc(c23)N[C@@H]1c1ccc(F)cc1 [talazoparib]
expression of Arg1 in BM-MDSCs (ARG-1, iNOS, COX2; 0.4 nM): blocked expression of Arg1
maximum tolerated dose [4]: 1 mg/day

NC(=O)c1cccc(N)c1 [3-aminobenzamide]
colitis [5]: protection

C[C@]1(c2nc3c(C(N)=O)cccc3[nH]2)CCCN1 [velaparib]
expression of Arg1 in BM-MDSCs (ARG-1, iNOS, COX2; 4 nM): blocked expression of Arg1
